Drawing on patent publication US10426781B2, “Oral formulation and suspension of an oncology drug” (SUN PHARMA GLOBAL FZE, priority 2013, dated 2019), this text covers solubility and surface area for two molecules.

A short description of series [1]: Solubility of sonidegib phosphate in various media. The series is classed as physicochemical. From the text:
Solubility of Sonidegib Phosphate in Various Media

Series [2] in a line: Surface area of sonidegib drug substance. The class given is physicochemical.

The structures appear in SMILES notation.

Usually solubility stands for the dissolved amount per volume that the medium holds. Low readings indicate little dissolved substance, high ones much dissolved substance. `Cc1c(C(=O)Nc2ccc(N3C[C@@H](C)O[C@@H](C)C3)nc2)cccc1-c1ccc(OC(F)(F)F)cc1` [Sonidegib Phosphate]: the solubility is less than 0.2 µg/mL in series [1] (acetate buffer, pH 4.5, aqueous buffer); less than 0.2 µg/mL in series [1] (phosphate buffer, pH 6.8, aqueous buffer); less than 0.2 µg/mL in series [1] (phosphate buffer, pH 7.4, aqueous buffer); 18 µg/mL in series [1] (simulated gastric fluid, 0.01N HCl, pH 2.0); 4 µg/mL in series [1] (simulated gastric fluid, 0.1N HCl, pH 1.0); 7 µg/mL in series [1] (water).
Turning to `Cc1c(C(=O)Nc2ccc(N3C[C@@H](C)O[C@@H](C)C3)nc2)cccc1-c1ccc(OC(F)(F)F)cc1` [Sonidegib, N-(6-((2R,6S)-2,6-dimethylmorpholino)pyridin-3-yl)-2-methyl-4′-(trifluoromethoxy)-[1,1′-biphenyl]-3-carboxamide], the surface area entry in series [2] was “Sonidegib has a very high surface area (270 m2/g) and a porous structure that leads to poor water solubility”.
